Measurements from patent US9877918B2, “Long-lasting controlled-release liposome composition and method for producing same” (TERUMO KABUSHIKI KAISHA, priority 2011, dated 2018).
Where a name gives a salt, the structure may show the parent alone.

Test: Bupivacaine hydrochloride retention in the administration site after subcutaneous administration
Format: in vivo
Settings: rat, SC 3.5 mg/kg, four hours after the administration
Procedure: (6) Concentration of Bupivacaine Hydrochloride in Tissue (mg/mL): Sampled tissue was treated, and, for a supernatant obtained finally by centrifugation, absorbance at 210 nm was determined by high performance liquid chromatography using a UV-visible absorptiometer, to thereby measure the concentration of bupivacaine hydrochloride in the tissue.
The bupivacaine hydrochloride liposome preparation prepared in Preparation Example 16 and bupivacaine hydrochloride used alone were subjected to a pharmacokinetic test. The liposome preparation and bupivacaine hydrochloride used alone were administered subcutaneously into a back part of a rat in respective doses as set forth in Table 11 while the doses are set as the amount of bupivacaine hydrochloride. After the lapse of 1, 24, 72, 120, and 168 hours from the administration of the bupivacaine hydrochloride liposome composition, and after the lapse of 0.5, 4, and 24 hours from the administration of bupivacaine hydrochloride used alone, a subcutaneous tissue of the back part in the administration site was sampled and subjected to a homogenizing treatment. […]

Structure (SMILES): CCCCN1CCCCC1C(=O)Nc1c(C)cccc1C (stereo not shown) [bupivacaine hydrochloride used alone, Bupivacaine Hydrochloride]
- retention rate in the administration site: below 1%
